Laboratory results taken from US20250025550A1, “ADJUVANT COMPOUNDS AND FORMULATIONS” (ADJUVANCE TECHNOLOGIES, INC., priority 2021, published 2025).
Where “and” joins values, the source holds several entries; their conditions need not be identical. Equal values may be shown once.

Key:
[1] = pH of TQL-1055 HP-β-CD solutions (Example 1); format: physicochemical
Experimental: (§1) Two solutions were prepared: (1) 15% w/v HP-β-CD in 1 ml of PBS, add TQL-1055 (crushed) to achieve 1 mg/ml; and (2) 20% w/v HP-β-CD in 1 ml of PBS; add TQL-1055 (crushed) to achieve 1 mg/ml. Both solutions were solubilized using heat and sonication for one hour at 60° C.

[2] = Stability of TQL-1055 in HP-β-CD solution: pH; format: physicochemical; conditions: 1 mg/ml TQL-1055, 20% w/v HP-β-CD in PBS
Experimental: (§2) Solutions containing 20% w/v HP-β-CD and 1 mg/ml dissolved TQL-1055 were prepared according to the following procedure: (1) crush TQL-1055 and sonicate in PBS; (2) add HP-β-CD solution to create a final concentration of 1 mg/ml TQL-1055, 20% HP-β-CD in PBS buffer (3) sonicate for ˜30-60 minutes at 60C (4) obtain a clear solution having 1 mg/ml TQL-1055; 20% w/v HP-R-CD. Control samples containing 20% HP-β-CD were prepared. Optical density and pH were measured at t=1 day, 1 week, 1 month, and 2 months. HPLC was conducted at t=1 day, 1 week, 1 month, and 2 months.

[3] = tested on: CD-i mice; conditions: mouse, in vivo
[4] = Optical density (clarity) of TQL-1055 in HP-β-CD solution; format: physicochemical; conditions: for Dissolution of TQL-1055: heat and sonication one hour at 60° C.
Experimental: as §1
Optical density shown below. Clarity is defined against background solvent optical density ([…]):
Three solutions were prepared: (1) 15% w/v HP-β-CD in 1 ml of PBS, add TQL-1055 (crushed) to achieve 2 mg/ml; (2) 20% w/v HP-β-CD in 1 ml of PBS; add TQL-1055 (crushed) to achieve 2 mg/ml; and (3) 25% w/v HP-β-CD in 1 ml of PBS; add TQL-1055 (crushed) to achieve 2 mg/ml. Solutions were solubilized using heat and sonication for one hour at 60° C. […]

[5] = Stability of TQL-1055 in HP-β-CD solution: clarity (optical density); format: physicochemical; conditions: 1 mg/ml TQL-1055, 20% w/v HP-β-CD in PBS
Experimental: as §2

[6] = Solubility in water at physiological pH; format: physicochemical; conditions: free acid form
[7] = Stability of TQL-1055 in HP-β-CD solution: HPLC; format: physicochemical; set-up: unit not given here; conditions: 1 mg/ml TQL-1055, 20% w/v HP-β-CD in PBS
Experimental: as §2

[8] = 1 mg/ml TQL-1055 in 15% w/v HP-β-CD in PBS, 48 hours (stored at 5° C.)
[9] = 1 mg/ml TQL-1055 in 15% w/v HP-β-CD in PBS, 48 hours (stored at RT)
[10] = 1 mg/ml TQL-1055 in 20% w/v HP-β-CD in PBS, 48 hours (stored at 5° C.)
[11] = 1 mg/ml TQL-1055 in 20% w/v HP-β-CD in PBS, 48 hours (stored at RT)
[12] = 2 mg/ml in 15% w/v HP-β-CD in PBS (solution 1)

SMILES: CC1O[C@@H](OC2C(O)[C@@H](NC(=O)CCCCCCCCCCC(=O)O)C(CO)O[C@H]2OC(=O)[C@]23CCC(C)(C)CC2C2=CCC4C5(C)CC[C@H](O)C(C)(C=O)C5CCC4(C)C2(C)CC3O)C(O)C(O)[C@H]1O[C@@H]1OC[C@@H](O)C(O)C1O (stereo partly shown) [TQL-1055]
- pH [1, 8]: (pH = 7.26)
- pH [1, 9]: (pH = 7.28)
- pH [1, 10]: (pH = 7.28)
- pH [1, 11]: (pH = 7.21)
- pH ([2]; 5 C., 1 month): 7.81 and 7.32
- pH ([2]; 5 C., 1 week): 7.32 and 7.25
- pH ([2]; 5 C., 2 month): 7.35 and 7.48
- pH ([2]; 5 C., Day 1): 7.47 and 7.43
- pH ([2]; 25 C., 1 month): 7.82 and 7.50
- pH ([2]; 25 C., 1 week): 7.35 and 7.00
- pH ([2]; 25 C., 2 month): 7.51 and 7.44
- pH ([2]; 25 C., Day 1): 7.45 and 7.47
- pH ([2]; −20 C., 1 month): 7.24 and 7.53
- pH ([2]; −20 C., 1 week): 7.19 and 7.26
- pH ([2]; −20 C., 2 month): 7.41 and 7.46
- pH ([2]; −20 C., Day 1): 7.35 and 7.41
- Mortality (follow-on studies, text) [3]: did not result in mortality
- Optical density ([4]; 1 mg/ml TQL-1055 in 15% w/v HP-β-CD in PBS, 0 hour (after sonication)): 0.055
- Optical density ([4]; 1 mg/ml TQL-1055 in 15% w/v HP-β-CD in PBS, 24 hours (stored at 5° C.)): 0.051
- Optical density ([4]; 1 mg/ml TQL-1055 in 15% w/v HP-β-CD in PBS, 24 hours (stored at RT)): 0.051
- Optical density [4, 8]: 0.052
- Optical density [4, 9]: 0.051
- Optical density ([4]; 1 mg/ml TQL-1055 in 20% w/v HP-β-CD in PBS, 0 hour (after sonication)): 0.058
- Optical density ([4]; 1 mg/ml TQL-1055 in 20% w/v HP-β-CD in PBS, 24 hours (stored at 5° C.)): 0.050
- Optical density ([4]; 1 mg/ml TQL-1055 in 20% w/v HP-β-CD in PBS, 24 hours (stored at RT)): 0.050
- Optical density [4, 10]: 0.056
- Optical density [4, 11]: 0.051
- Dissolution of TQL-1055 ([4]; 1 mg/ml in 15% and in 20% w/v HP-β-CD in PBS): dissolved completely
- Optical density ([4]; 2 mg/ml TQL-1055 in 15% w/v HP-β-CD in PBS, 0 hour (after sonication), replicates): 0.083, 0.083, (2×) and 0.083 (n = 3)
- Optical density ([4]; 2 mg/ml TQL-1055 in 15% w/v HP-β-CD in PBS, 24 hours (stored at RT), replicates): 0.081, 0.081
- Optical density ([4]; 2 mg/ml TQL-1055 in 15% w/v HP-β-CD in PBS, 48 hours (stored at RT), replicates): 0.067 and 0.068
- Optical density ([4]; 2 mg/ml TQL-1055 in 20% w/v HP-β-CD in PBS, 0 hour (after sonication), replicates): 0.061 and 0.066 and 0.068 (n = 3)
- Optical density ([4]; 2 mg/ml TQL-1055 in 20% w/v HP-β-CD in PBS, 24 hours (stored at RT), replicates): 0.054, 0.054
- Optical density ([4]; 2 mg/ml TQL-1055 in 20% w/v HP-β-CD in PBS, 48 hours (stored at RT), replicates): 0.049 and 0.053
- Optical density ([4]; 2 mg/ml TQL-1055 in 25% w/v HP-β-CD in PBS, 0 hour (after sonication), replicates): 0.052 (n = 3) and 0.049 and 0.051
- Optical density ([4]; 2 mg/ml TQL-1055 in 25% w/v HP-β-CD in PBS, 24 hours (stored at RT), replicates): 0.053 and 0.054
- Optical density ([4]; 2 mg/ml TQL-1055 in 25% w/v HP-β-CD in PBS, 48 hours (stored at RT), replicates): 0.057 and 0.055
- Clarity of solution [4, 12]: not completely clear
- Optical density (OD) [4, 12]: > 0.060
- Dissolution of TQL-1055 ([4]; 2 mg/ml in 20% (solution 2) and 25% (solution 3) w/v HP-β-CD in PBS): dissolved completely
- Clarity (OD) ([5]; 5 C., 1 month): 0.0485 and 0.051
- Clarity (OD) ([5]; 5 C., 1 week): 0.051 and 0.053
- Clarity (OD) ([5]; 5 C., 2 month): 0.058 and 0.050
- Clarity (OD) ([5]; 5 C., Day 1): 0.054 and 0.053
- Clarity (OD) ([5]; 25 C., 1 month): 0.053 and 0.0455
- Clarity (OD) ([5]; 25 C., 1 week): 0.049 and 0.052
- Clarity (OD) ([5]; 25 C., 2 month): 0.051 and 0.05
- Clarity (OD) ([5]; 25 C., Day 1): 0.052 and 0.050
- Clarity (OD) ([5]; −20 C., 1 month): 0.049 and 0.0475
- Clarity (OD) ([5]; −20 C., 1 week): 0.05 and 0.051
- Clarity (OD) ([5]; −20 C., 2 month): 0.054
- Clarity (OD) ([5]; −20 C., Day 1): 0.056 and 0.052
- solubility in water [6]: poor solubility in water at physiological pH
- HPLC ([7]; 5 C., 1 month): 106.1 and 107.9
- HPLC ([7]; 5 C., 1 week): 104.4 and 108.9
- HPLC ([7]; 5 C., 2 months): 109 and 105
- HPLC ([7]; 5 C., Day 1): 105.4 and 109.4
- HPLC ([7]; 25 C., 1 month): 108.7 and 107.5
- HPLC ([7]; 25 C., 1 week): 109.2 and 106.9
- HPLC ([7]; 25 C., 2 months): 105
- HPLC ([7]; 25 C., Day 1): 106.1 and 109.4
- HPLC ([7]; −20 C., 1 month): 109.6
- HPLC ([7]; −20 C., 2 months): 105.3 and 102
- HPLC ([7]; −20 C., Day 1): 100 and 105.3
